Measured values: US20130040882A1, “USE OF FIBROBLAST GROWTH FACTOR FRAGMENTS” (NOVARTIS AG, priority 2003, published 2013)
Where two headings read alike, the source gives them in different places.

Test system: transcript levels in tissues (GH/IGF and glucagon/insulin axes, SSTR signalling)
Assay type: in vivo, cynomolgus monkeys

cyclo[4-(NH2—C2H4—NH—CO—O)Pro-Phg-DTrp-Lys-Tyr(4-Bzl)-Phe] [SOM230]
Calcium/calmodulin-dependent protein kinase (CaM kinase) II β expression ↑ (fold change) (spleen): II β ↑ x2 | Calmodulin 1 (phosphorylase kinase, δ) expression ↑ (fold change) (spleen): kinase, δ) ↑ x2 | Calmodulin 2 (phosphorylase kinase, δ) expression ↑ (fold change) (spleen): kinase, δ) ↑ x1.5 | Caspase 8, apoptosis-related cysteine protease expression ↑ (fold change) (spleen): ↑ x2.5 | Cdk 2 expression ↑ (fold change) (spleen): Cdk 2 ↑ x1.5 | Cdk 5, regulatory subunit 1 (p35) expression ↑ (fold change) (spleen): 1 (p35) ↑ x2 | Cdk 6 expression ↑ (fold change) (spleen): Cdk 6 ↑ x3 | Cyclin D2 expression ↑ (fold change) (spleen): x1.5 | Cyclin I expression ↓ (fold change) (spleen): Cyclin I ↓ x1.5 | Death-associated protein expression ↑ (fold change) (spleen): protein ↑ x1.5 | Dopamine receptor D4 expression ↓ (fold change) (spleen): receptor D4 ↓ x2 | EGF (β-urogastrone) expression ↓ (fold change) (spleen): urogastrone) ↓ x2 | Follistatin-like 1 expression ↑ (fold change) (spleen): ↑ x1.5 | Gastric inhibitory polypeptide receptor expression ↑ (fold change) (spleen): ↑ x2 | Gene expression (AvgDiff): IGF-1 (spleen): 85 | Gene expression (AvgDiff): IGFBP6 (spleen): 1,043 | Gene expression (AvgDiff): SSTR2 (spleen): 93 | HGF activator inhibitor precursor expression ↑ (fold change) (spleen): x1.5 | IFN regulatory factor 2 expression ↑ (fold change) (spleen): factor 2 ↑ x3.5 | IFN-inducible RNA-dependent protein kinase expression ↑ (fold change) (spleen): ↑ x2.5 | IFNγ receptor 2 (IFNγ transducer 1) expression ↑ (fold change) (spleen): x1.5 | IFNγ responsive transcript expression ↑ (fold change) (spleen): ↑ x2 | IGF-1 expression ↑ (fold change) (spleen): IGF-1 ↑ x1.5 | IGFBP6 expression ↑ (fold change) (spleen): IGFBP6 ↑ x2.5 | IL 1 receptor-like 1 expression ↑ (fold change) (spleen): 1 ↑ x2 | IL-8 receptor type B expression ↑ (fold change) (spleen): B ↑ x1.5 | IP-4-phosphatase, type 1, isoform b expression ↑ (fold change) (spleen): ↑ x2 | K+ large conductance Ca++-activated channel, subfamily M, β member 1 expression ↑ (fold change) (spleen): ↑ x2.5 | K+ voltage-gated channel, shaker-related subfamily, member 3 expression ↓ (fold change) (spleen): member 3 ↓ x3 | LTb4 (chemokine rceptor-like 1) expression ↑ (fold change) (spleen): rceptor-like 1) ↑ x3 | Nuclear factor of activated T-cells, cytoplasmic, calcineurin-dependent 1 expression ↓ (fold change) (spleen): dependent 1 ↓ x5 | PDGF, α polypeptide expression ↑ (fold change) (spleen): polypeptide ↑ x2.5 | PDGFR, α polypeptide expression ↑ (fold change) (spleen): polypeptide ↑ x1.5 | PI-3-kinase, catalytic, α polypeptide expression ↓ (fold change) (spleen): polypeptide ↓ x2.5 | PI-3-kinase, class 2, β polypeptide expression ↑ (fold change) (spleen): ↑ x1.5 | PI-3-kinase, class 3 expression ↑ (fold change) (spleen): 3 ↑ x2 | PKC, α binding protein expression ↑ (fold change) (spleen): protein ↑ x2 | PLA2 expression ↑ (fold change) (spleen): PLA2 ↑ x2 | PTHR 1 expression ↓ (fold change) (spleen): PTHR 1 ↓ x2.5 | Phosphatidyl inositol glycan, class B expression ↑ (fold change) (spleen): B ↑ x1.5 | Programmed cell death 10 expression ↑ (fold change) (spleen): death 10 ↑ x1.5 | Putative chemokine receptor; GTP-binding protein expression ↑ (fold change) (spleen): ↑ x2.5 | Rb binding protein expression ↑ (fold change) (spleen): ↑ x2 | Rb-binding protein 8 expression ↑ (fold change) (spleen): 8 ↑ x1.5 | S-phase kinase-associated protein 1A (p19A) expression ↑ (fold change) (spleen): 1A (p19A) ↑ x2 | SSTR2 expression ↑ (fold change) (spleen): SSTR2 ↑ x2 | Solute carrier family 9 (Na+/H+ exchanger) isoform 3 regulatory factor 1 expression ↑ (fold change) (spleen): ↑ x10.5 | TGF induced protein expression ↑ (fold change) (spleen): protein ↑ x1.5 | TGFβ receptor III (betaglycan, 300 kD) expression ↓ (fold change) (spleen): ↓ x1.5 | TNF (cachectin) expression ↑ (fold change) (spleen): ↑ x2 | TNF (ligand) superfamily, member 13 expression ↑ (fold change) (spleen): member 13 ↑ x2.5 | TNFR superfamily, member 12 expression ↑ (fold change) (spleen): member 12 ↑ x1.5 | Tumour protein p53-binding protein expression ↑ (fold change) (spleen): ↑ x1.5 | VEGF expression ↑ (fold change) (spleen): VEGF ↑ x1.5 | Vasodilatator-stimulated phosphoprotein expression ↑ (fold change) (spleen): phosphoprotein ↑ x2 | β adrenergic receptor kinase 1 expression ↑ (fold change) (spleen): kinase 1 ↑ x3 | S-phase kinase-associated protein 1A expression ↑ (fold change) (spleen, second entry, without (p19A)): 1A ↑ x2 | ATPase, Ca++ transporting, cardiac muscle, fast twitch 1 expression ↓ (fold change) (thyroid): ↓ x4.5 | Adenylate cyclase activating polypeptide precursor expression ↓ (fold change) (thyroid): x1.5 | Adrenergic, α-2C-, receptor expression ↓ (fold change) (thyroid): ↓ x2.5 | Bcl-2 binding component 3 expression ↓ (fold change) (thyroid): ↓ x2 | Brain cannabinoid receptor 1 expression ↓ (fold change) (thyroid): ↓ x2 | CD2 antigen (cytoplasmic tail)-binding protein 2 expression ↑ (fold change) (thyroid): ↑ x3.5 | CD2 antigen (p50), sheep red blood cell receptor expression ↓ (fold change) (thyroid): ↓ x7.5 | COL1A1 and PDGFB fusion transcript expression ↓ (fold change) (thyroid): transcript ↓ x6 | Cadherin 13, H-cadherin (heart) expression ↑ (fold change) (thyroid): ↑ x2 | Calcium/calmodulin dependent protein kinase 1 expression ↓ (fold change) (thyroid): ↓ x2 | Calcium/calmodulin-dependent PK IV expression ↓ (fold change) (thyroid): IV ↓ x7.5 | Calmodulin-dependent PK IV (CaM-kinase IV) expression ↓ (fold change) (thyroid): IV) ↓ x7.5 | Cannabinoid receptor 2 (macrophage) expression ↑ (fold change) (thyroid): ↑ x3 | Cdc-like 5 (cholinesterase-related cell division controller) expression ↓ (fold change) (thyroid): x2 | Cdk 5, regulatory subunit 1 (p35) expression ↓ (fold change) (thyroid): subunit 1 (p35) ↓ x5 | Cdk (CDC2-like) expression ↓ (fold change) (thyroid): Cdk (CDC2-like) ↓ x9 | Chemokine (C-X-C motif), receptor 4 (fusin) expression ↓ (fold change) (thyroid): ↓ x3 | Chole-cystokinin B receptor expression ↓ (fold change) (thyroid): receptor ↓ x3 | Cyclin B2 expression ↓ (fold change) (thyroid): Cyclin B2 ↓ x2.5 | DAG 1 kinase, α (80 kD) expression ↓ (fold change) (thyroid): (80 kD) ↓ x4 | Egf-like module containing, mucin-like, hormone receptor-like sequence 1 expression ↓ (fold change) (thyroid): sequence 1 ↓ x5 | FKBP-associated protein expression ↓ (fold change) (thyroid): protein ↓ x2.5 | Flt3 ligand expression ↓ (fold change) (thyroid): Flt3 ligand ↓ x4.5 | Fms-related tyrosine kinase 1(VEGF/vascular permeability factor receptor) expression ↓ (fold change) (thyroid): ↓ x2 | GABA (A) receptor, γ2 precursor expression ↓ (fold change) (thyroid): ↓ x1.5 | GABA (B) receptor 1, isoform a precursor expression ↑ (fold change) (thyroid): ↑ x2.5 | Gastric inhibitory polypeptide 1 receptor expression ↓ (fold change) (thyroid): receptor ↓ x2 | Gene expression (AvgDiff): IGF-1 (thyroid): 58 | Glutamate receptor, metabotropic 2 precursor expression ↓ (fold change) (thyroid): precursor ↓ 3.5 | Growth arrest-specific 1 expression ↓ (fold change) (thyroid): 1 ↓ x2.5 | IFNα-inducible protein 27 expression ↑ (fold change) (thyroid): 27 ↑ x3 | IFNγ responsive transcript expression ↓ (fold change) (thyroid): ↓ x1.5 | IFNγ-inducible protein 30 expression ↑ (fold change) (thyroid): protein 30 ↑ x3.5 | IGF-1 expression ↓ (fold change) (thyroid): IGF-1 ↓ x1.5 | IL2-inducible T-cell kinase expression ↓ (fold change) (thyroid): ↓ x12 | IL9 receptor expression ↓ (fold change) (thyroid): IL9 receptor ↓ x2 | IP3 receptor type 3 expression ↓ (fold change) (thyroid): type 3 ↓ x1.5 | K+ voltage-gated channel, shaker-related subfamily, member 3 expression ↓ (fold change) (thyroid): ↓ x4.5 | LTB4 receptor (chemokine receptor-like 1) expression ↓ (fold change) (thyroid): ↓ x1.5 | Lymphocyte specific protein tyrosine kinase expression ↓ (fold change) (thyroid): ↓ x4 | P56lck expression ↓ (fold change) (thyroid): P56lck ↓ x18 | PDGF-associated Protein expression ↑ (fold change) (thyroid): Protein ↑ x2 | PDGFR α expression ↓ (fold change) (thyroid): ↓ x3 | PDGFR β expression ↑ (fold change) (thyroid): ↑ x2 | PIP 5-phosphatase type IV expression ↓ (fold change) (thyroid): type IV ↓ x3 | PLC, γ1 (formerly subtype 148) expression ↓ (fold change) (thyroid): ↓ x2 | Phosphatidyl ethanolamine N-methyltransferase expression ↑ (fold change) (thyroid): ↑ x2 | Pro-platelet basic protein (includes platelet basic protein, β-thromboglobulin, connective tissue-activating peptide III, neu) 2 expression ↑ (fold change) (thyroid): 2 ↑ x3.5 | RAG1 expression ↓ (fold change) (thyroid): RAG1 ↓ x18 | RAG2 expression ↓ (fold change) (thyroid): RAG2 ↓ x5 | RANTES expression ↑ (fold change) (thyroid): RANTES ↑ x10.5 | SH2 domain protein 1A, Duncan's disease (lymphoproliferative syndrome) expression ↓ (fold change) (thyroid): ↓ x7.5 | Signalling lymphocytic activation molecule expression ↓ (fold change) (thyroid): ↓ x4.5 | Solute carrier family 21 (PG transporter), member 2 expression ↑ (fold change) (thyroid): member 2 ↑ x2 | TCR ζ chain precursor expression ↓ (fold change) (thyroid): ↓ x5.5 | TNF (ligand) superfamily, member 10 expression ↑ (fold change) (thyroid): ↑ x2 | TSHR expression ↓ (fold change) (thyroid): TSHR ↓ x2 | Thrombospondin 2 expression ↑ (fold change) (thyroid): 2 ↑ x2 | Transcription factor 7 (T-cell specific, HMG-box) expression ↓ (fold change) (thyroid): box) ↓ x16.5 | VWF precursor expression ↑ (fold change) (thyroid): precursor ↑ x2 | c-AMP responsive element binding protein 1 expression ↓ (fold change) (thyroid): protein 1 ↓ x2 | Endothelial differentiation-related factor 1 expression, direction of change (thyroid, arrow only, factor not given): related factor 1 ↑
